The conditions of data set [1]: cited from earlier work.
The conditions of data set [2]: olaparib tablets 200 mg, noncompartmental; cited from earlier work.
The format of data set [3] is in vivo, human.
The conditions of data set [4]: cited from earlier work. This is another data set of the same source.
For data set [5], the system named is blood/PMBCs. The conditions noted are these: in vitro; cited from earlier work.
A short description of data set [6]: Population pharmacokinetic. The class given is in vivo, human.
For data set [7] the following is noted: cited from earlier work. The source holds these as a separate data set.
For data set [8] the following is noted: cited from earlier work. This is another data set of the same source.
For data set [9] the following is noted: cited from earlier work. This is another data set of the same source.
For data set [10] the following is noted: cited from earlier work. The source holds these as a separate data set.
Where [11] appears, read: this study, carboplatin pre-treatment.
[12] abbreviates: final population PK model, inter-individual variability.
[13] abbreviates: 400 mg capsule dose, estimated range.
The mark [14] stands for this setting: 400 mg capsule dose, typical averages.
Setting [15] is: patients with CLcr = 50–80 mL/min, prescribing information.
The mark [16] stands for this setting: prescribing information, 400 mg BID capsules.
[17] abbreviates: olaparib monotherapy, clinical trials.
[18] abbreviates: n = 4, ref unpublished findings from the drug sponsor (NCT00516724).
Where [19] appears, read: ref unpublished findings from the drug sponsor.

This is an account of results in PMC6361113 (Cancer chemotherapy and pharmacology, 2017).

Several values for one entry are separate records, joined by “and”; a condition that tells them apart may be missing. Identical values can stand only once. Like-named read-outs stand apart in the source and are kept apart here.

As for `O=C(c1cc(Cc2n[nH]c(=O)c3ccccc23)ccc1F)N1CCN(C(=O)C2CC2)CC1` [olaparib], in [1] (100 mg olaparib tablets BID with cisplatin and gemcitabine, 23 advanced cancer patients), the “CL/F point estimate, previous population PK model” value is 6.48 L/h and 6.5 L/h. For the same compound, the “V/F point estimate, previous population PK model” value in data set [1] (100 mg olaparib tablets BID with cisplatin and gemcitabine, 23 patients) is reported as 38.7 L. Moreover, the “half-life of first dose olaparib, previous population PK model” value in [1] (100 mg olaparib tablets BID with cisplatin and gemcitabine) is given as 4 h. Moreover, the “absorption rate (Ka), previous population PK model” value in data set [1] (single compartment absorption model) is 2 h⁻¹. Further, the “CL/F NCA estimate” value in data set [2] is 6.08 L/h. In addition, the half-life (usually the time needed for the level to fall by half in the phase considered) in [3] (human, plasma, oral, 200 mg) is roughly 3 h. In addition, the “V/F, first 200 mg dose of olaparib alone” value in data set [3] (this study, Group A C1D1, before carboplatin) was determined as 31.1 L. Besides, in data set [3] (setting [11]), the “decrease in olaparib AUCLAST in presence of carboplatin” value is listed as 1.3 fold and the “decrease in olaparib CMAX in presence of carboplatin” value is on record as 1.2 fold. Further, in data set [4], the “change in olaparib plasma protein binding by carboplatin” value is “no change in olaparib plasma protein binding”. Also, the “intracellular olaparib when blood/PMBCs were pretreated with carboplatin” value in data set [5] was “greater intracellular olaparib”. For the same compound, in data set [6] (bootstrap, 1000 replicates), the “IIV CL/F bootstrap estimate (%RSE)” value was 57.0% (7.06%) %CV, the “IIV Tlag bootstrap estimate (%RSE)” value is recorded as 70.7% (19.6%) %CV and the “IIV V/F bootstrap estimate (%RSE)” value is reported as 38.4% (9.78%) %CV. Besides, the “BSV on the CL/F parameter explained by carboplatin covariate” value in data set [6] (final covariate model) was roughly 2%. For the same compound, the “IIV CL/F point estimate (%RSE)” value in data set [6] (final population PK model, inter-individual (between-subject) variability) is listed as 55.0% (7.98%) %CV. Besides, in data set [6] (setting [12]), the “IIV Tlag point estimate (%RSE)” value is on record as 87.1% (13.5%) %CV and the “IIV V/F point estimate (%RSE)” value is reported as 37.3% (9.23%) %CV. The “change in volume of distribution relative to carboplatin pretreatment” value in data set [6] (in vivo) is “No change in volume of distribution”. Also, the “correlation (r) of creatinine clearance with olaparib clearance” value in data set [6] (population model) was less than 0.005. Also, in data set [7] (setting [13]), the clearance was 7.0 to 10.8 L/h and the volume of distribution was 107 to 210 L. Further, in [7] (setting [14]), the AUC (as a rule, concentration integrated over time) is 10000 to 70000 ng·h/mL and the CMax is 1 to 6.4 µg/mL. Further, in [7], the “CL/F, other literature value” is recorded as 4.6 L/h and the “V/F, other literature value” is recorded as 40.3 L. In data set [7] (elimination rate calculated over a 72-h period), the half-life is 12 h. In data set [7] (setting [15]), the “increase in olaparib AUC in mild renal impairment” value is given as 1.2 fold and the “increase in olaparib CMAX in mild renal impairment” value is recorded as 1.5 fold. In data set [7] (setting [16]), the “apparent plasma CL/F” value is 8.6 (±7.1) L/h and the “apparent volume of distribution at steady-state (Vss/F)” value is 167 (±196) L. In data set [7] (tablet dose of 200 mg), the AUC mean was 43000 ng·h/mL, the CL/F mean was 7.95 L/h, the CMAX mean was 7 µg/mL and the V/F mean is listed as 146 L. For the same compound, the “patients having hematologic toxicity” value in data set [8] (olaparib capsules combined with carboplatin, likely due to carboplatin) was 82%. For the same compound, in data set [8] (setting [17]), the “grade 1–2 fatigue” value is on record as roughly 30%, the “grade 1–2 nausea” value was roughly 32% and the “grade 1–2 vomiting” value is given as roughly 20%. Further, in data set [9] (setting [18]), the “lower olaparib CMAX with carboplatin pre-exposure” value is 14.8% and the “lower steady state olaparib AUC with carboplatin pre-exposure” value was 11.0%. In data set [9] (setting [19]), the “lower olaparib AUC with carboplatin pre-exposure” value is 14% and the “lower olaparib CMAX with carboplatin pre-exposure” value is given as 17%.

Consider `N.N.O=C([O-])C1(C(=O)[O-])CCC1.[Pt+2]` [carboplatin], for which the terminal plasma half-life in [10] is 2 to 3 h. Besides, the plasma protein binding result in data set [10] (human, in vivo) is “not plasma protein bound”. For the same compound, in data set [10] (patients with normal renal function (CLcr > 60 mL/min)), the “dose excreted within 12 h” value is 65%.
